This note sets out measurements from DBAASP.

The structures appear in SMILES notation. Converted amounts (≈) assume the structure as drawn. “And” between values parts separate entries of the source, which are not always exact repeats. Equal entries are not always repeated.

Common to all, as to test: ≥ marks a high value that may be exact or a test limit, other limits are often not marked, values filed in µg/mL are converted to µM
Assay [1] relates to Batrachochytrium dendrobatidis.
In assay [2] the test system is Escherichia coli ATCC 25922.
In assay [3] the test system is Staphylococcus aureus NCTC 8325.
In assay [4] the test system is Bacillus subtilis 168.
Assay [5] deals with Escherichia coli K-12.
The test system of assay [6] is Pseudomonas aeruginosa PAO1.
Assay [7] concerns Staphylococcus aureus USA 300.
Assay [8] relates to Bacillus subtilis.
The test system of assay [9] is Enterococcus faecalis ATCC 29212.
Assay [10] deals with Escherichia coli.
For assay [11], the system named is Klebsiella pneumoniae ATCC 13883.
Assay [12] relates to Pseudomonas aeruginosa ATCC 27853.
For assay [13], the system named is Salmonella enterica subsp. enterica serovar Typhimurium ATCC 14028.
Assay [14] relates to Staphylococcus aureus ATCC 25923.
The subject of assay [15] is Streptococcus pyogenes ATCC 19615.
The test system of assay [16] is Bacillus subtilis ATCC 6633.
The test system of assay [17] is Klebsiella pneumoniae ATCC 10031.
In assay [18] the test system is Micrococcus luteus ATCC 10240.
Assay [19] has as its system Shigella dysenteriae ATCC 9752.
In assay [20] the test system is Staphylococcus aureus ATCC 6538P.
Assay [21] concerns Staphylococcus aureus TK784.
Assay [22] concerns Staphylococcus epidermidis ATCC 12228.
Assay [23] deals with Listeria innocua.
For assay [24], the system named is Micrococcus luteus A270.
The test system of assay [25] is Salmonella enterica subsp. enterica serovar Enteritidis.
The subject of assay [26] is Candida albicans MDM8.
Assay [27] concerns Escherichia coli SBS 363.
Assay [28] has as its system Micrococcus luteus.
Assay [29] has as its system Staphylococcus aureus.

What is called MIC is the smallest concentration in the dilution series that meets the test's criterion for growth inhibition. Higher therefore signals a need for much substance. Consider `CC[C@H](C)[C@H](NC(=O)[C@@H](NC(=O)[C@@H]1CCCN1C(=O)[C@H](CC(C)C)NC(=O)[C@@H](N)Cc1ccccc1)[C@@H](C)CC)C(=O)N[C@@H](C)C(=O)N[C@@H](CO)C(=O)N[C@@H](CC(C)C)C(=O)N[C@@H](CC(C)C)C(=O)N[C@@H](CO)C(=O)N[C@@H](CCCCN)C(=O)N[C@@H](CC(C)C)C(=O)N[C@@H](CC(C)C)C(N)=O` [FLPIIASLLSKLL], for which the MIC in assay [1] is ≥ 32.2 µM.

Turning to `CC[C@H](C)[C@H](NC(=O)CN)C(=O)N[C@@H](CC(C)C)C(=O)N[C@@H](CO)C(=O)N[C@H](C(=O)N[C@@H](Cc1ccccc1)C(=O)N[C@@H](CCCCN)C(=O)NCC(=O)N[C@@H](CC(C)C)C(=O)N[C@@H](C)C(=O)N[C@@H](CCCCN)C(=O)NCC(=O)N[C@H](C(=O)N[C@@H](C)C(=O)N[C@@H](CCCCN)C(=O)N[C@@H](CC(=O)O)C(=O)N[C@@H](CC(C)C)C(=O)N[C@@H](C)C(=O)NCC(=O)N[C@@H](CC(N)=O)C(=O)N[C@@H](CC(C)C)C(=O)N[C@@H](CC(C)C)C(=O)N[C@@H](CC(=O)O)C(=O)N[C@@H](CCCCN)C(=O)N[C@@H](Cc1ccccc1)C(=O)N[C@@H](CCCCN)C(=O)N[C@H]1CSSC[C@@H](C(=O)O)NC(=O)CNC(=O)[C@H]([C@@H](C)O)NC(=O)[C@H]([C@@H](C)CC)NC(=O)[C@H](CCCCN)NC1=O)C(C)C)[C@@H](C)O` [GILSTFKGLAKGVAKDLAGNLLDKFKCKITGC], the results for the MIC in [1], in assay [2] and in assay [3] were 25 µM (≈ 82.7 µg/mL), 7 µM (≈ 23.2 µg/mL) and 27 µM (≈ 89.3 µg/mL), respectively.

Take `CC(C)[C@H](NC(=O)[C@@H](NC(=O)[C@H](CCCCN)NC(=O)CNC(=O)[C@@H](NC(=O)[C@@H](NC(=O)[C@H](CO)NC(=O)[C@@H](NC(=O)[C@@H](NC(=O)[C@@H]1CCCN1C(=O)[C@@H](NC(=O)[C@@H](NC(=O)CN)C(C)C)C(C)C)C(C)C)C(C)C)C(C)C)C(C)C)C(C)C)C(N)=O` [GVVPVVSVVGKVV]: the MIC in [4] was ≥ 100 µM; in assay [5] it was ≥ 100 µM; in [6], > 100 µM; in assay [7] it was ≥ 100 µM.

For `CC(C)C[C@H](NC(=O)[C@H](CC(C)C)NC(=O)[C@H](CCCCN)NC(=O)[C@H](CC(C)C)NC(=O)[C@H](CCCCN)NC(=O)[C@H](CC(C)C)NC(=O)[C@H](CCCCN)NC(=O)[C@H](CC(C)C)NC(=O)[C@H](CC(C)C)NC(=O)[C@H](CC(C)C)NC(=O)[C@@H](N)CCCCN)C(=O)N[C@@H](CCCCN)C(N)=O` [KLLLKLKLKLLK], the minimal inhibitory concentration (MIC) was ≥ 50 µM in assay [8]; 100 µM (≈ 145 µg/mL) in assay [9]; 50 µM (≈ 72.5 µg/mL) in assay [10]; ≥ 200 µM in [11]; 100 µM (≈ 145 µg/mL) in assay [12]; > 200 µM in assay [13]. In addition, the MIC was 50 µM (≈ 72.5 µg/mL) in assay [14] and ≥ 50 µM in [15].

With `CC(C)C[C@H](NC(=O)[C@H](CCCCN)NC(=O)[C@H](CCCCN)NC(=O)[C@H](CC(C)C)NC(=O)[C@H](Cc1c[nH]c2ccccc12)NC(=O)[C@H](CCCCN)NC(=O)[C@H](CC(C)C)NC(=O)[C@H](CC(C)C)NC(=O)[C@H](CCCCN)NC(=O)[C@H](CCCCN)NC(=O)[C@@H](N)CC(C)C)C(N)=O` [LKKLLKWLKKL], the MIC in assay [16] amounted to 1.42 µM (≈ 2 µg/mL); in [2] it was 1.42 µM (≈ 2 µg/mL); in assay [17], 1.42 µM (≈ 2 µg/mL); in assay [18] it was 2.84 µM (≈ 4 µg/mL); in assay [12], 5.67 µM (≈ 7.99 µg/mL); in assay [13], 2.84 µM (≈ 4 µg/mL). Moreover, the MIC was found to be 1.42 µM (≈ 2 µg/mL) in assay [19], 1.42 µM (≈ 2 µg/mL) in assay [20], 11.3 µM (≈ 16 µg/mL) in [21] and 1.42 µM (≈ 2 µg/mL) in [22].

On to `CC(C)C[C@H](NC(=O)[C@H](Cc1c[nH]c2ccccc12)NC(=O)[C@H](CCCCN)NC(=O)[C@H](CCCCN)NC(=O)[C@H](CC(C)C)NC(=O)[C@H](Cc1c[nH]c2ccccc12)NC(=O)[C@H](CCCCN)NC(=O)[C@@H](N)CC(C)C)C(=O)N[C@@H](CCCCN)C(N)=O` [LKWLKKWLK], for which the MIC is ≥ 32.2 µM in [16]; 32.2 µM (≈ 40 µg/mL) in assay [2]; ≥ 64.4 µM in assay [17]; ≥ 64.4 µM in assay [18]; 32.2 µM (≈ 40 µg/mL) in [12]; > 64.4 µM in [13]. For the same compound, the MIC in [19] was ≥ 64.4 µM; in [20] it was 8.05 µM (≈ 9.99 µg/mL); in [21] it was ≥ 64.4 µM; in assay [22], 32.2 µM (≈ 40 µg/mL).

As for `CC(C)C[C@H](N)C(=O)N[C@@H](CO)C(=O)N[C@@H](Cc1ccccc1)C(=O)N1CCC[C@H]1C(=O)N[C@H](C(=O)N[C@H](C(=O)N[C@@H](CCCCN)C(=O)N[C@H](C(=O)N[C@@H](Cc1ccc(O)cc1)C(=O)N[C@@H](Cc1ccccc1)C(=O)N1CCC[C@H]1C(=O)N[C@@H](Cc1cnc[nH]1)C(=O)N[C@@H](Cc1ccccc1)C(=O)O)[C@@H](C)O)[C@@H](C)O)[C@@H](C)O` [LSFPTTKTYFPHF], the minimal inhibitory concentration (MIC) in [10] worked out at 9 µM (≈ 14.3 µg/mL); in assay [23] it was 1 µM (≈ 1.59 µg/mL); in assay [24], 5 µM (≈ 7.93 µg/mL); in [25], 5 µM (≈ 7.93 µg/mL).

`CC[C@H](C)[C@H](NC(=O)[C@H](CC(C)C)NC(=O)[C@H](CO)NC(=O)[C@H](CC(C)C)NC(=O)[C@H](CC(C)C)NC(=O)[C@@H](N)CCCN=C(N)N)C(=O)N[C@@H](CCCN=C(N)N)C(=O)N[C@@H](CCCCN)C(=O)N[C@@H](CC(C)C)C(=O)N[C@H](C(=O)N[C@H](C(N)=O)[C@@H](C)O)[C@@H](C)CC` [RLLSLIRKLIT]: the MIC in [26] is 0.78 µM (≈ 1.03 µg/mL); in assay [27], 1.56 µM (≈ 2.07 µg/mL); in [24] it was 0.5 µM (≈ 0.662 µg/mL).

With `C[C@@H](O)[C@H](N)C(=O)N[C@@H](CO)C(=O)N[C@@H](CCCCN)C(=O)N[C@@H](Cc1ccc(O)cc1)C(=O)N[C@@H](CCCN=C(N)N)C(=O)O` [TSKYR], the MIC in [10] was 9 µM (≈ 5.88 µg/mL); in assay [23] it was 1 µM (≈ 0.654 µg/mL); in assay [24], 9 µM (≈ 5.88 µg/mL); in assay [28], 9 µM (≈ 5.88 µg/mL); in [25], 5 µM and 4.6 µM; in [29], 1 µM (≈ 0.654 µg/mL).

With `CC(C)C[C@H](NC(=O)[C@H](CC(C)C)NC(=O)[C@H](CCCCN)NC(=O)[C@H](CCCCN)NC(=O)[C@H](CC(C)C)NC(=O)[C@H](CC(C)C)NC(=O)[C@H](CCCCN)NC(=O)[C@H](CCCCN)NC(=O)[C@H](CC(C)C)NC(=O)[C@@H](N)Cc1c[nH]c2ccccc12)C(=O)N[C@@H](CCCCN)C(N)=O` [WLKKLLKKLLK], the minimum inhibitory concentration (MIC) was found to be 1.42 µM (≈ 2 µg/mL) in [16]; 2.84 µM (≈ 4 µg/mL) in [2]; 1.42 µM (≈ 2 µg/mL) in assay [17]; 2.84 µM (≈ 4 µg/mL) in assay [18]; 5.67 µM (≈ 7.99 µg/mL) in [12]; 1.42 µM (≈ 2 µg/mL) in assay [13]. Besides, the MIC was 1.42 µM (≈ 2 µg/mL) in assay [19], 1.42 µM (≈ 2 µg/mL) in assay [20], 5.67 µM (≈ 7.99 µg/mL) in assay [21] and 1.42 µM (≈ 2 µg/mL) in assay [22].

Turning to `CC(C)C[C@H](NC(=O)[C@H](CO)NC(=O)[C@H](CCCN=C(N)N)NC(=O)[C@H](CCCCN)NC(=O)[C@@H](NC(=O)[C@@H](NC(=O)CNC(=O)[C@H](CCCN=C(N)N)NC(=O)[C@H](Cc1cnc[nH]1)NC(=O)[C@H](Cc1c[nH]c2ccccc12)NC(=O)[C@H](Cc1ccccc1)NC(=O)[C@H](Cc1cnc[nH]1)NC(=O)[C@H](Cc1ccc(O)cc1)NC(=O)[C@@H](N)Cc1ccc(O)cc1)C(C)C)[C@@H](C)O)C(=O)N[C@@H](CO)C(=O)N1CCC[C@H]1C(=O)N[C@@H](Cc1cnc[nH]1)C(=O)O` [YYHFWHRGVTKRSLSPH], the MIC in assay [8] is ≥ 100 µM; in assay [9], > 100 µM; in [10], 30 µM (≈ 65.1 µg/mL); in assay [11] it was ≥ 100 µM; in assay [12] it was > 100 µM; in assay [13], > 100 µM. In addition, the minimal inhibitory concentration (MIC) is > 100 µM in assay [14] and ≥ 100 µM in assay [15].
